In patent publication US20090233906A1, “IMIDAZOAZEPINONE COMPOUNDS” (priority 2006, published 2009):

system: human T-bet; assay: HEKT-bet-luc assay (normalized); format: cell-based; conditions: Homo sapiens, HEK293, 24 h, normalized HEKT-bet-luc IC50; engineered HEK cells, T-box responsive luciferase reporter, compound 24 hours; normalized to reference ER-819544; read-out: IC50
Protocol: HEKT-bet-luc assay: This assay measures a T-bet dependent reporter (luciferase) activity in engineered HEK cells that express a human T-bet and a T-box responsive element driving luciferase reporter. HEKT-bet cells were plated at 2×10^4/well in 96-well plate and compound was added into cell culture for 24 hours. Luciferase activity was measured by adding 50 μl of Steady-Glo reagent (Promega) and samples were read in Victor V reader (PerkinElmer). The activity of compound was determined by comparing compound treated samples to non-compound treated vehicle controls. The IC50 values were calculated utilizing a maximum value corresponding to the amount of luciferase in the absence of a test compound and a minimum value corresponding to a test compound value obtained at maximum inhibition.
Determination of Normalized HEKT-bet IC50 values: Compounds were assayed in microtiter plates. Each plate included a reference compound which was ER-819544. The un-normalized IC50 value for a particular compound was divided by the IC50 value determined for the reference compound in the same microtiter plate to provide a relative potency value. The relative potency value was then multiplied by the established potency of the reference compound to provide the normalized HEKT-bet IC50 value. […] The IC50 values provided herein were obtained using this normalization method.

Going from CCN1C(=O)N2Cc3cc(OC)cc(OC)c3C(C)C=C2C12CCN(Cc1cc(C)cc(C)c1)CC2 (racemic) [compound 819597] to CCN1C(=O)N2Cc3cc(OC)cc(OC)c3C(C)C=C2C12CCN(Cc1cc(Br)cc(Br)c1)CC2 (centres unmarked) [compound 819599], the IC50 rises from 90 nM to 4710 nM (52-fold).

COCCN1C(=O)N2Cc3cc(OC)cc(OC)c3C(C)C=C2C12CCN(Cc1cc(OC)cc(OC)c1)CC2 (centres unmarked) [compound 819543] and CCC1C=C2N(Cc3cc(OC)cc(OC)c31)C(=O)N(CCOC)C21CCN(Cc2cc(OC)cc(OC)c2)CC1 (centres unmarked) [compound 819549] are the same in IC50: 15 nM for the first, 15 nM for the second.

Going from COCCN1C(=O)N2Cc3cc(OC)cc(OC)c3C(C)(C)C=C2C12CCN(Cc1cc(OC)cc(OC)c1)CC2 [compound 819544] to COc1cc(CN2CCC3(CC2)C2=CC(C)(C)c4c(cc(OC)cc4OC)CN2C(=O)N3CCO)cc(OC)c1 [compound 819657], the IC50 rises from 35 nM to 65 nM (1.9-fold).

Compared with CCN1C(=O)N2Cc3cc(OC)cc(OC)c3C(C)C=C2C12CCN(Cc1cccs1)CC2 (centres unmarked) [compound 819556], CCc1ccc(CN2CCC3(CC2)C2=CC(C)c4c(cc(OC)cc4OC)CN2C(=O)N3CC)s1 (centres unmarked) [compound 819557] is 3.1-fold higher in IC50: 166 nM for the first, 510 nM for the second.

CCN1C(=O)N2Cc3cc(OC)cc(OC)c3C(C)C=C2C12CCN(Cc1cscc1Br)CC2 (centres unmarked) [compound 819558] and CCN1C(=O)N2Cc3cc(OC)cc(OC)c3C(C)C=C2C12CCN(Cc1cn(C)c3ccccc13)CC2 (centres unmarked) [compound 819596] are within 1.5-fold of each other in IC50: 740 nM for the first, 720 nM for the second.

Going from CCN1C(=O)N2Cc3cc(OC)cc(OC)c3C(C)C=C2C12CCN(Cc1cc(OC)cc(OC)c1)CC2 (centres unmarked) [compound 819582] to CCN1C(=O)N2Cc3cc(OC)cc(OC)c3C(C)(C)C=C2C12CCN(Cc1cc(OC)cc(OC)c1)CC2 [compound 819583], the IC50 rises from 10 nM to 112 nM (11-fold).

First: COc1cc(CN2CCC3(CC2)C2=CC(C)(C)c4c(cc(OC)cc4OC)CN2C(=O)N3Cc2cccc(-n3cccc3)c2)cc(OC)c1 [compound 819590]
Second: COc1cc(CN2CCC3(CC2)C2=CC(C)(C)c4c(cc(OC)cc4OC)CN2C(=O)N3Cc2ccccc2)cc(OC)c1 [compound 819662]
The IC50 of the first is 1.7-fold lower: 514 nM for the first, 898 nM for the second.

Going from CCN1C(=O)N2Cc3cc(OC)cc(OC)c3C(C)C=C2C12CCN(Cc1cccc3ncccc13)CC2 (centres unmarked) [compound 819592] to COc1cc2c(c(OC)c1)C(C)C=C1N(C2)C(=O)N(C)C12CCN(Cc1cccc3ncccc13)CC2 (centres unmarked) [compound 819688], the IC50 rises from 86 nM to 288 nM (3.3-fold). The first is the more potent here.

Compared with CCN1C(=O)N2Cc3cc(OC)cc(OC)c3C(C)C=C2C12CCN(Cc1cccc3cnccc13)CC2 (centres unmarked) [compound 819593], CCN1C(=O)N2Cc3cc(OC)cc(OC)c3C(C)C=C2C12CCN(Cc1cccc3cccnc13)CC2 (centres unmarked) [compound 819594] is 2.3-fold lower in IC50: 140 nM for the first, 60 nM for the second. The second is the more potent here.

Compared with CCN1C(=O)N2Cc3cc(OC)cc(OC)c3C(C)C=C2C12CCN(Cc1cccc3nccnc13)CC2 (centres unmarked) [compound 819595], CCN1C(=O)N2Cc3cc(OC)cc(OC)c3C(C)(C)C=C2C12CCN(Cc1cccc3nccnc13)CC2 [compound 819605] is 2.9-fold higher in IC50: 90 nM for the first, 260 nM for the second.

First: CCN1C(=O)N2Cc3cc(OC)cc(OC)c3C(C)(C)C=C2C12CCN(Cc1ccnc3ccccc13)CC2 [compound 819601]
Second: CCN1C(=O)N2Cc3cc(OC)cc(OC)c3C(C)(C)C=C2C12CCN(Cc1cccc3ncccc13)CC2 [compound 819602]
The IC50 of the first is 1.7-fold higher: 260 nM for the first, 150 nM for the second.

Compared with CCN1C(=O)N2Cc3cc(OC)cc(OC)c3C(C)(C)C=C2C12CCN(Cc1cccc3cnccc13)CC2 [compound 819603], CCN1C(=O)N2Cc3cc(OC)cc(OC)c3C(C)(C)C=C2C12CCN(Cc1cccc3cccnc13)CC2 [compound 819604] is 2.8-fold lower in IC50: 340 nM for the first, 120 nM for the second.

Compared with CCN1C(=O)N2Cc3cc(OC)cc(OC)c3C(C)(C)C=C2C12CCN(Cc1cn(C)c3ccccc13)CC2 [compound 819606], CCN1C(=O)N2Cc3cc(OC)cc(OC)c3C(C)(C)C=C2C12CCN(Cc1ccccc1)CC2 [compound 819640] is 5.3-fold lower in IC50: 2870 nM for the first, 542 nM for the second. The second is the more potent here.

Going from CCN1C(=O)N2Cc3cc(OC)cc(OC)c3C(C)(C)C=C2C12CCN(Cc1cc(C)cc(C)c1)CC2 [compound 819607] to COCCN1C(=O)N2Cc3cc(OC)cc(OC)c3C(C)(C)C=C2C12CCN(Cc1cc(C)cc(C)c1)CC2 [compound 819659], the IC50 falls from 500 nM to 68 nM (7.4-fold). The second is the more potent here.

Compared with COCCN1C(=O)N2Cc3cc(OC)ccc3C(C)(C)C=C2C12CCN(Cc1ccccc1)CC2 [compound 819613], COCCN1C(=O)N2Cc3cc(OC)cc(OC)c3C(C)(C)C=C2C12CCN(Cc1ccccc1)CC2 [compound 819641] is 13-fold lower in IC50: 1310 nM for the first, 98 nM for the second.

Going from COc1cc2c(c(OC)c1)C(C)(C)C=C1N(C2)C(=O)N(C)C12CCN(Cc1ccc3ccccc3c1)CC2 [compound 819627] to COc1cc2c(c(OC)c1)C(C)(C)C=C1N(C2)C(=O)N(C)C12CCN(Cc1cccc3ccccc13)CC2 [compound 819637], the IC50 falls from 1600 nM to 734 nM (2.2-fold). The second is the more potent here.

First: COc1cccc(CN2CCC3(CC2)C2=CC(C)(C)c4c(cc(OC)cc4OC)CN2C(=O)N3C)c1 [compound 819628]
Second: CCN1C(=O)N2Cc3cc(OC)cc(OC)c3C(C)(C)C=C2C12CCN(Cc1cccc(OC)c1)CC2 [compound 819646]
The IC50 of the first is 2-fold higher: 360 nM for the first, 184 nM for the second. The second is the more potent here.

Going from COc1cc2c(c(OC)c1)C(C)(C)C=C1N(C2)C(=O)N(C)C12CCN(Cc1ccccc1)CC2 [compound 819629] to COc1cc2c(c(OC)c1)C(C)(C)C=C1N(C2)C(=O)N(CCO)C12CCN(Cc1ccccc1)CC2 [compound 819642], the IC50 falls from 840 nM to 365 nM (2.3-fold). The second is the more potent here.

Going from COc1cc2c(c(OC)c1)C(C)(C)C=C1N(C2)C(=O)N(C)C12CCN(C/C=C/c1ccccc1)CC2 [compound 819634] to COc1cc(CN2CCC3(CC2)C2=CC(C)(C)c4c(cc(OC)cc4OC)CN2C(=O)N3C)cc(OC)c1 [compound 819658], the IC50 falls from 1150 nM to 141 nM (8.2-fold). The second is the more potent here.

Going from COCCN1C(=O)N2Cc3cc(OC)cc(OC)c3C(C)(C)C=C2C12CCN(Cc1cccc(OC)c1)CC2 [compound 819647] to COc1cccc(CN2CCC3(CC2)C2=CC(C)(C)c4c(cc(OC)cc4OC)CN2C(=O)N3CCO)c1 [compound 819648], the IC50 rises from 64 nM to 147 nM (2.3-fold). The first is the more potent here.

Compared with COc1cccc(CN2CCC3(CC2)C2=CC(C)(C)c4c(cc(OC)cc4OC)CN2C(=O)N3Cc2ccccc2)c1 [compound 819649], COc1cccc(CN2CCC3(CC2)C2=CC(C)(C)c4c(cc(OC)cc4OC)CN2C(=O)N3Cc2ccc(-n3cccn3)cc2)c1 [compound 819650] is 7.4-fold lower in IC50: 4940 nM for the first, 669 nM for the second.

Going from CC=C1C=C2N(Cc3cc(OC)cc(OC)c31)C(=O)N(CC)C21CCN(Cc2cc(OC)cc(OC)c2)CC1 [compound 819651] to CCC=C1C=C2N(Cc3cc(OC)cc(OC)c31)C(=O)N(CC)C21CCN(Cc2cc(OC)cc(OC)c2)CC1 [compound 819652], the IC50 rises from 110 nM to 270 nM (2.5-fold).

Going from COCCN1C(=O)N2Cc3cc(OC)ccc3C(C)(C)C=C2C12CCN(Cc1cc(OC)cc(OC)c1)CC2 [compound 819655] to COCCN1C(=O)N2Cc3cc(F)ccc3C(C)(C)C=C2C12CCN(Cc1cc(OC)cc(OC)c1)CC2 [compound 819672], the IC50 rises from 204 nM to 877 nM (4.3-fold).

COc1cc(CN2CCC3(CC2)C2=CC(C)(C)c4c(cc(OC)cc4OC)CN2C(=O)N3Cc2ccc(-n3cccn3)cc2)cc(OC)c1 [compound 819663] and CCN1C(=O)N2Cc3cc(OC)cc(OC)c3/C=C/C=C\2C12CCN(Cc1cc(OC)cc(OC)c1)CC2 [compound 819702] are within 1.5-fold of each other in IC50: 637 nM for the first, 600 nM for the second.

Compared with COCCN1C(=O)N2Cc3cc(OC)cc(OC)c3CC=C2C12CCN(Cc1cc(OC)cc(OC)c1)CC2 [compound 819673], C=C1C=C2N(Cc3cc(OC)cc(OC)c31)C(=O)N(CC)C21CCN(Cc2cc(OC)cc(OC)c2)CC1 [compound 819703] is 2.4-fold higher in IC50: 102 nM for the first, 247 nM for the second. The first is the more potent here.

Going from COCCN1C(=O)N2Cc3ccccc3C(C)(C)C=C2C12CCN(Cc1cc(OC)cc(OC)c1)CC2 [compound 819677] to COCCN1C(=O)N2Cc3ccoc3C(C)(C)C=C2C12CCN(Cc1cc(OC)cc(OC)c1)CC2 [compound 819698], the IC50 rises from 1020 nM to 1980 nM (1.9-fold).

COc1cc2c(c(OC)c1)C(C)C=C1N(C2)C(=O)N(C)C12CCN(Cc1cccc3cccnc13)CC2 (centres unmarked) [compound 819689] and COc1cc2c(c(OC)c1OC)C(C)C=C1N(C2)C(=O)N(CCO)C12CCN(Cc1cc(C)cc(C)c1)CC2 (centres unmarked) [compound 819735] are within 1.5-fold of each other in IC50: 169 nM for the first, 140 nM for the second.

First: COCCN1C(=O)N2Cc3cc(OC)c(OC)c(OC)c3C(C)(C)C=C2C12CCN(Cc1cc(OC)cc(OC)c1)CC2 [compound 819701]
Second: COCCN1C(=O)N2Cc3cc(OC)cc(OC)c3C(C)(C)C=C2C12CCN(Cc1cc(OC)cc(OC)c1C)CC2 [compound 819749]
The IC50 of the first is 2.1-fold lower: 21 nM for the first, 44 nM for the second.

First: COCCN1C(=O)N2Cc3cc(F)cc(F)c3C(C)(C)C=C2C12CCN(Cc1cc(OC)cc(OC)c1)CC2 [compound 819704]
Second: COCCN1C(=O)N2Cc3cc(OC)cc(OC)c3C(C)(C)C=C2C12CCN(Cc1cc(OC)cc(OC)c1O)CC2 [compound 819750]
The IC50 of the first is 67-fold higher: 2760 nM for the first, 41 nM for the second. The second is the more potent here.

Going from CCN1C(=O)N2Cc3cc4c(cc3C(C)(C)C=C2C12CCN(Cc1cc(OC)cc(OC)c1)CC2)OCO4 [compound 819708] to COc1cc(CN2CCC3(CC2)C2=CC(C)(C)c4c(cc(OC)cc4OC)CN2C(=O)N3CCO)c(F)c(OC)c1 [compound 819724], the IC50 falls from 3600 nM to 104 nM (35-fold). The second is the more potent here.

same assay, conditions: Homo sapiens, HEKT-bet-luc assay; value used for normalization; read-out: established potency of the reference compound (IC50)

Work on COCCN1C(=O)N2Cc3cc(OC)cc(OC)c3C(C)(C)C=C2C12CCN(Cc1cc(OC)cc(OC)c1)CC2 [ER-819544] yielded an IC50 of 35 nM.

same assay, conditions: normalized HEKT-bet-luc IC50; engineered HEK cells, T-box responsive luciferase reporter, compound 24 hours; normalized to reference ER-819544; read-out: IC50

COc1cc(CN2CCC3(CC2)C2=CC(C)(C)c4c(cc(OC)cc4OC)CN2C(=O)N3CCO)cc(OC)c1 [compound 819657] was tested, and the IC50 was 124 nM.
